Measurements reported in ChEMBL document CHEMBL1124016, “Antihypertensive activity in a series of 1-piperazino-3-phenylindans with potent 5-HT2-antagonistic activity” (J Med Chem, 1988).

Tests used:
[1] = target: Serotonin 2 (5-HT2) receptor (Rattus norvegicus, UniProt P30994+P08909+P14842); assay: Inhibition of [3H]spiperone binding to 5-hydroxytryptamine 2 receptor from rat cortical membranes; type: cell membranes, Membrane
[2] = target: T1, Adrenergic receptor alpha-1 (Rattus norvegicus, UniProt P15823+P23944+P43140); assay: Inhibition of [3H]prazosin binding to alpha-1 adrenergic receptor from rat cortical membranes; type: cell membranes, Membrane
T1 sequence (P15823 whole entry): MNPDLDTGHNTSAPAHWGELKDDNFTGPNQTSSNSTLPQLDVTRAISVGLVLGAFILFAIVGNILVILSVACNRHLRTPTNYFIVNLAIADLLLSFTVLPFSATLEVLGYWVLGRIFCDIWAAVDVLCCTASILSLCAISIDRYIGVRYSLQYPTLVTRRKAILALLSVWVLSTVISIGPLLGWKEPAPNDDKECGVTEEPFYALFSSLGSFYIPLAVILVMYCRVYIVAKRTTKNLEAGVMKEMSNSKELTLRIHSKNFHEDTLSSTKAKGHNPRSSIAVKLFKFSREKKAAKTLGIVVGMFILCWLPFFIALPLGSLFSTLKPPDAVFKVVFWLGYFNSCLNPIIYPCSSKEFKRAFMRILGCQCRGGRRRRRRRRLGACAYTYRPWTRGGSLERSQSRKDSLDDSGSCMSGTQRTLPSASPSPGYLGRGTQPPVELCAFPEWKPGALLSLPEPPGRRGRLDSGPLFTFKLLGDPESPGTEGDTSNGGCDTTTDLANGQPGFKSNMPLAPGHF
T1 sequence (P23944 whole entry): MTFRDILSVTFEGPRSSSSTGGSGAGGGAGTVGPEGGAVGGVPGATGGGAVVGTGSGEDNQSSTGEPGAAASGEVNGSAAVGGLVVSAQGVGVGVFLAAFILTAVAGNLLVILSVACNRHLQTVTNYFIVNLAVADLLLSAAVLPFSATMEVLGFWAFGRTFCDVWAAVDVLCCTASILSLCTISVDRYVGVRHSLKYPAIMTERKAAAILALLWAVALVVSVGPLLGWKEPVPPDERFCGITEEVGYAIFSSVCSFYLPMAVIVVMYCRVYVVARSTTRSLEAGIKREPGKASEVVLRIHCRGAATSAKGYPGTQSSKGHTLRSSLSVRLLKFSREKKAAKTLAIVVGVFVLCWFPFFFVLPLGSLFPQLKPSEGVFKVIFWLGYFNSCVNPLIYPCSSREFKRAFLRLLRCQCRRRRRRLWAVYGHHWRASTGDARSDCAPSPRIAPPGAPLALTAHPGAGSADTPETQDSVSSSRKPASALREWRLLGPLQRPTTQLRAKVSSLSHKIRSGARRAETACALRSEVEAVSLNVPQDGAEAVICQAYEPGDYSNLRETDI
T1 sequence (P43140 whole entry): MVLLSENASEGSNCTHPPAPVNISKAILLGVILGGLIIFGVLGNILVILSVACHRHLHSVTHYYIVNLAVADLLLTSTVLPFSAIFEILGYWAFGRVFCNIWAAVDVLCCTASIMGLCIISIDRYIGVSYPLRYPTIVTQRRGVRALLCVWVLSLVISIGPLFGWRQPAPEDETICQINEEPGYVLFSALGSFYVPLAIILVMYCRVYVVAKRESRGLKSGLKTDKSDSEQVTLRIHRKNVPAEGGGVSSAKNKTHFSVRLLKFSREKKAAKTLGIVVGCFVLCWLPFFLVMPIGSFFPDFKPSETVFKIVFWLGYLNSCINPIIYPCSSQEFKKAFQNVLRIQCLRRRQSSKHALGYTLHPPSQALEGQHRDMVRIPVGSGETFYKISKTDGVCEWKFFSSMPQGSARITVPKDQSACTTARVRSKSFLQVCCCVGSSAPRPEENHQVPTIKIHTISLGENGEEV

D(2) dopamine receptor = D(2) dopamine receptor (Rattus norvegicus, UniProt P61169); assay: Inhibition of [3H]spiperone binding to Dopamine receptor D2 from rat striatal membranes; type: cell membranes, Membrane
Mus musculus = organism: Mus musculus; assay: Inhibition of methyl phenidate induced stereotyped gnawing in mice; type: functional
Rattus norvegicus [3] = assay: Inhibition of 5-HT induced pressor response in pithed rats, after intravenous administration, activity is expressed as ED50; type: functional
Rattus norvegicus [4] = organism: Rattus norvegicus; assay: Inhibition of L-5-HTP (L-5-hydroxytryptophan) induced head twitches in rat; type: functional
Rattus norvegicus [5] = assay: Percent reduction of diastolic arterial blood pressure(DAP) in spontaneously hypertensive rat after 10 min at intraperitoneal administration of 5 mg/kg; type: functional
Rattus norvegicus [6] = assay: Percent reduction of systolic arterial blood pressure(SAP) in spontaneously hypertensive rat after 10 min at intraperitoneal administration of 5 mg/kg; type: functional
Rattus norvegicus [7] = organism: Rattus norvegicus; assay: Ratio of phenylephrine ED50/ 5-HT ED50; type: functional
Rattus norvegicus [8] = assay: Inhibition of 5-HT induced pressor response in pithed rats, after intravenous administration of 0.02 mg/kg; type: functional
Rattus norvegicus [9] = assay: Inhibition of phenylephrine induced pressor response in pithed rats (following i.v. administration of […]); type: functional; settings: route intravenous
Rattus norvegicus [10] = assay: Inhibition of 5-HT induced pressor response in pithed rats, after intravenous administration; type: functional
Rattus norvegicus [11] = assay: Percent reduction of blood pressure in spontaneously hypertensive rat after 10 min at intraperitoneal administration of 5 mg/kg; type: functional
[12] = Rattus norvegicus, read-out: ED50

D(2) dopamine receptor, sequence (P61169 whole entry): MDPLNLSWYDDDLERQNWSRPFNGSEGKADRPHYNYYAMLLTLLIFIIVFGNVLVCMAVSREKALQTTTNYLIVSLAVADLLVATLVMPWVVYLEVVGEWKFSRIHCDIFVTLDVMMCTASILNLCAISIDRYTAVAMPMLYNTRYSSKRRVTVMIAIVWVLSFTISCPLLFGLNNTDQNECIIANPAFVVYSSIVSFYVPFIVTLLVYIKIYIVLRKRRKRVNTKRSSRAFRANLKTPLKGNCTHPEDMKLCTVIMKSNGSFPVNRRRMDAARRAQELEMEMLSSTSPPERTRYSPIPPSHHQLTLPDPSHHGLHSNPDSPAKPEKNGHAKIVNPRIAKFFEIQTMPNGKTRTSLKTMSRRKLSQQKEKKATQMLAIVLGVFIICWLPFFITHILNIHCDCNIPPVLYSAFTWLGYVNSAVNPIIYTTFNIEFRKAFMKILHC

Row | Structure (SMILES) | IC50 [1] | IC50 [2] | IC50 (D(2) dopamine receptor) | ED50 (Mus musculus) | ED50 (Rattus norvegicus [3]) | ED50 (Rattus norvegicus [4]) | Reduction (Rattus norvegicus [5]) | Reduction (Rattus norvegicus [6]) | Ratio (Rattus norvegicus [7]) | Change (Rattus norvegicus [8]) | Change (Rattus norvegicus [9]) | ED50 (Rattus norvegicus [10]) | ED50 (Rattus norvegicus [4]; [12]) | Reduction (Rattus norvegicus [11]) | Increase (Rattus norvegicus [6]) | Increase (Rattus norvegicus [5])
1 | Cl.Cl.OC1=NCCN1CCCN1CCN(C2CC(c3ccc(F)cc3)c3ccc(F)cc32)CC1 (stereo not given) | 5.6 nM | 12 nM | 46 nM | 55 µmol/kg | 2.7 µmol/kg | 2 µmol/kg | -19% | -12% | 87 |  |  |  |  |  |  | 
2 | O.O=c1[nH]c2ccccc2c(=O)n1CCN1CCN(C2CC(c3ccc(F)cc3)c3ccc(F)cc32)CC1 (stereo not given) | 2.9 nM | 5.3 nM | 19 nM | > 79 µmol/kg | 0.43 µmol/kg | 2.3 µmol/kg | -46% | -29% | 13 | -52% | -57% | 0.032 µmol/kg |  |  |  | 
3 | O=C1NCCN1CCN1CCN(C2CC(c3ccc(F)cc3)c3ccccc32)CC1 (stereo not given) | 4.2 nM | 33 nM | 930 nM | > 98 µmol/kg | 3.1 µmol/kg |  | -43% | -33% | 129 |  |  |  |  |  |  | 
4 | CN1CCN(CCN2CCN([C@@H]3C[C@@H](c4ccc(F)cc4)c4ccc(F)cc43)CC2)C1=O | 10 nM | 11 nM | 38 nM |  | 2.2 µmol/kg |  |  |  | 550 |  | -29% | 0.0043 µmol/kg | 0.023 µmol/kg | -32% |  | 
5 | OCCN1CCN([C@@H]2C[C@@H](c3ccc(F)cc3)c3ccc(C(F)(F)F)cc32)CC1 (racemic) [TEFLUDAZINE] | 8.4 nM | 17 nM | 16 nM | 0.071 µmol/kg | 2.4 µmol/kg |  | -24% | -18% | 69 |  |  | 0.035 µmol/kg |  |  |  | 
6 | CN1CCN(CCN2CCN([C@H]3C[C@H](c4ccc(F)cc4)c4ccc(F)cc43)CC2)C1=O | 410 nM | 1300 nM | 8500 nM | > 91 µmol/kg |  | > 45 µmol/kg | -1% |  |  | -6% | 72% |  |  |  | 1% | 
7 | O=C1NCCN1CCN1CCN(C2CC(c3ccc(F)cc3)c3ccc(F)cc32)CC1 (stereo not given) | 6.5 nM | 24 nM | 200 nM | > 47 µmol/kg | 2.6 µmol/kg |  | -19% | -13% | 153 |  |  |  |  |  |  | 
8 | CC(C)N1CCN(CCN2CCN(C3CC(c4ccc(F)cc4)c4ccc(F)cc43)CC2)C1=O.Cl.Cl (stereo not given) | 4.8 nM | 28 nM | 35 nM | > 73 µmol/kg |  |  |  | -5% |  |  |  |  |  |  |  | 0%
9 | O=C1NCCN1CCN1CCN(C2CCc3ccccc32)CC1 (stereo not given) | 5100 nM |  | 62000 nM | > 127 µmol/kg |  | > 8 µmol/kg |  |  |  |  |  |  |  |  | 5% | 6%
10 | Cl.Cl.O.O=C1OCCN1CCN1CCN(C2CC(c3ccc(F)cc3)c3ccc(F)cc32)CC1 (stereo not given) | 44 nM |  |  |  | 4.4 µmol/kg |  |  |  | 5.2 | -27% | 19% |  |  | -20% |  | 
11 | O.OC1=NCCN1CCN1CCN(C2CC(c3ccc(O)cc3)c3ccccc32)CC1 (stereo not given) | 310 nM | 560 nM | 4000 nM | > 98 µmol/kg |  | > 49 µmol/kg | -6% | -6% |  | -5% | 22% |  |  |  |  | 
12 | Cl.Cl.O=C1OCCN1CCN1CCN(C2CC(c3ccc(F)cc3)c3ccccc32)CC1 (stereo not given) | 130 nM |  |  | > 83 µmol/kg |  |  | -19% | -15% |  |  |  |  |  |  |  | 
13 | Fc1ccc(C2CC(N3CCN(CCN4CCN=C4S)CC3)c3cc(F)ccc32)cc1 (stereo not given) | 4.9 nM |  |  |  |  |  |  |  | 370 |  |  | 0.01 µmol/kg |  | -10% |  | 
14 | OCCN1CCN(C2CC(c3ccc(F)cc3)c3ccccc32)CC1 (stereo not given) | 64 nM | 62 nM | 680 nM | > 118 µmol/kg | 3.4 µmol/kg |  |  |  | 10 | -15% | -12% | 0.33 µmol/kg | 0.46 µmol/kg | -27% |  | 
15 | CN1CCN(CCN2CCN(C3CC(c4ccc(F)cc4)c4ccc(F)cc43)CC2)C1=O.Cl.Cl (stereo not given) | 3.3 nM | 11 nM | 260 nM | > 78 µmol/kg | 13 µmol/kg |  |  |  | 1300 |  |  | 0.01 µmol/kg | 0.078 µmol/kg | -11% |  | 
16 | Cl.Cl.O=c1[nH]c2ccccc2c(=O)n1CCN1CCN(C2CC(c3ccc(F)cc3)c3ccccc32)CC1 (stereo not given) | 3.4 nM | 5.5 nM | 60 nM | > 70 µmol/kg | 0.77 µmol/kg |  |  |  | 7.7 | -35% | -42% | 0.1 µmol/kg | 4.4 µmol/kg | -22% |  | 
